Tests used:
Test in all cases: relative viability (nuclei count vs DMSO), 5 days (fraction); higher = more cells survive
NCI-H727 = tested on: NCI-H727
Outline: (§1)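 One day after seeding in 1536-well plates, lung cancer cell lines were dosed by pin tool. Dosing was either single-drug or a fixed anchor-drug dose plus five library-drug doses (not always all listed) in √10 steps. After 5 days, nuclei were stained in one fix-and-stain step and counted on 4× images, and relative viability is the nuclei count of treated wells over that of vehicle wells, given as the median of duplicate plates.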

NCI-H2023 = tested on: NCI-H2023
Outline: as §1

RERF-LC-KJ = tested on: RERF-LC-KJ
Outline: as §1

NCI-H2126 = tested on: NCI-H2126
Outline: as §1

NCI-H650 = tested on: NCI-H650
Outline: as §1

LOU-NH91 = tested on: LOU-NH91
Outline: as §1

NCI-H1755 = tested on: NCI-H1755
Outline: as §1

NCI-H1437 = tested on: NCI-H1437
Outline: as §1

HCC-78 = tested on: HCC-78
Outline: as §1

LCLC-103H = tested on: LCLC-103H
Outline: as §1

NCI-H441 = tested on: NCI-H441
Outline: as §1

HCC-827 = tested on: HCC-827
Outline: as §1

NCI-H1792 = tested on: NCI-H1792
Outline: as §1

NCI-H2085 = tested on: NCI-H2085
Outline: as §1

NCI-H2342 = tested on: NCI-H2342
Outline: as §1

NCI-H2170 = tested on: NCI-H2170
Outline: as §1

LCLC-97TM1 = tested on: LCLC-97TM1
Outline: as §1

SK-MES-1 = tested on: SK-MES-1
Outline: as §1

201T = tested on: 201T
Outline: as §1

ChaGo-K-1 = tested on: ChaGo-K-1
Outline: as §1

NCI-H2405 = tested on: NCI-H2405
Outline: as §1

`COCC1(CO)C(=O)C2CCN1CC2` (configuration not stated) [PRIMA-1MET] + CC(=O)c1c(C)c2cnc(Nc3ccc(N4CCNCC4)cn3)nc2n(C2CCCC2)c1=O [Palbociclib] (partner 0.5 µM) showed a relative viability (NCI-H727; first compound 0.2 µM) of 0.629, a relative viability (NCI-H727; first compound 0.6325 µM) of 0.584 and a relative viability (NCI-H727; first compound 6.325 µM) of 0.672. For the same molecule, the relative viability (NCI-H727; first compound 20 µM) was 0.379, the relative viability (NCI-H2023; first compound 0.2 µM) was 0.352 and the relative viability (NCI-H2023; first compound 0.6325 µM) was 0.379. For the same molecule, the relative viability (NCI-H2023; first compound 2 µM) was 0.422, the relative viability (NCI-H2023; first compound 6.325 µM) was 0.365 and the relative viability (NCI-H2023; first compound 20 µM) was 0.295. The relative viability (RERF-LC-KJ; first compound 0.2 µM) was 1.13, the relative viability (RERF-LC-KJ; first compound 0.6325 µM) was 1.13 and the relative viability (RERF-LC-KJ; first compound 2 µM) was 0.978. For the same molecule, the relative viability (RERF-LC-KJ; first compound 6.325 µM) was 1.08, the relative viability (RERF-LC-KJ; first compound 20 µM) was 1.04 and the relative viability (NCI-H2126; first compound 0.2 µM) was 0.335. It also gave a relative viability (NCI-H2126; first compound 0.6325 µM) of 0.336, a relative viability (NCI-H2126; first compound 2 µM) of 0.321 and a relative viability (NCI-H2126; first compound 6.325 µM) of 0.372. The relative viability (NCI-H2126; first compound 20 µM) was 0.326, the relative viability (NCI-H650; first compound 0.2 µM) was 0.317 and the relative viability (NCI-H650; first compound 0.6325 µM) was 0.289. It also gave a relative viability (NCI-H650; first compound 2 µM) of 0.367, a relative viability (NCI-H650; first compound 6.325 µM) of 0.338 and a relative viability (NCI-H650; first compound 20 µM) of 0.0905. For the same molecule, the relative viability (LOU-NH91; first compound 0.2 µM) was 0.507, the relative viability (LOU-NH91; first compound 0.6325 µM) was 0.514 and the relative viability (LOU-NH91; first compound 2 µM) was 0.54. The relative viability (LOU-NH91; first compound 6.325 µM) was 0.508, the relative viability (LOU-NH91; first compound 20 µM) was 0.452 and the relative viability (NCI-H1755; first compound 0.2 µM) was 0.479. The relative viability (NCI-H1755; first compound 0.6325 µM) was 0.397, the relative viability (NCI-H1755; first compound 2 µM) was 0.43 and the relative viability (NCI-H1755; first compound 6.325 µM) was 0.482. For the same molecule, the relative viability (NCI-H1755; first compound 20 µM) was 0.459, the relative viability (NCI-H1437; first compound 0.2 µM) was 0.322 and the relative viability (NCI-H1437; first compound 0.6325 µM) was 0.313. For the same molecule, the relative viability (NCI-H1437; first compound 2 µM) was 0.306, the relative viability (NCI-H1437; first compound 6.325 µM) was 0.324 and the relative viability (NCI-H1437; first compound 20 µM) was 0.299. The relative viability (HCC-78; first compound 0.2 µM) was 0.449, the relative viability (HCC-78; first compound 0.6325 µM) was 0.507 and the relative viability (HCC-78; first compound 2 µM) was 0.397. For the same molecule, the relative viability (HCC-78; first compound 6.325 µM) was 0.446, the relative viability (HCC-78; first compound 20 µM) was 0.427 and the relative viability (LCLC-103H; first compound 0.2 µM) was 0.488. The relative viability (LCLC-103H; first compound 0.6325 µM) was 0.376, the relative viability (LCLC-103H; first compound 2 µM) was 0.466 and the relative viability (LCLC-103H; first compound 6.325 µM) was 0.484. The relative viability (LCLC-103H; first compound 20 µM) was 0.425, the relative viability (NCI-H441; first compound 0.2 µM) was 0.221 and the relative viability (NCI-H441; first compound 0.6325 µM) was 0.227. The relative viability (NCI-H441; first compound 2 µM) was 0.192, the relative viability (NCI-H441; first compound 6.325 µM) was 0.201 and the relative viability (NCI-H441; first compound 20 µM) was 0.205. For the same molecule, the relative viability (HCC-827; first compound 0.2 µM) was 0.573, the relative viability (HCC-827; first compound 0.6325 µM) was 0.462 and the relative viability (HCC-827; first compound 2 µM) was 0.403. It also gave a relative viability (HCC-827; first compound 6.325 µM) of 0.506, a relative viability (HCC-827; first compound 20 µM) of 0.615 and a relative viability (NCI-H1792; first compound 0.2 µM) of 0.633. For the same molecule, the relative viability (NCI-H1792; first compound 0.6325 µM) was 0.596, the relative viability (NCI-H1792; first compound 2 µM) was 0.622 and the relative viability (NCI-H1792; first compound 6.325 µM) was 0.7. For the same molecule, the relative viability (NCI-H1792; first compound 20 µM) was 0.638, the relative viability (NCI-H2085; first compound 0.2 µM) was 0.526 and the relative viability (NCI-H2085; first compound 0.6325 µM) was 0.515. The relative viability (NCI-H2085; first compound 2 µM) was 0.475, the relative viability (NCI-H2085; first compound 6.325 µM) was 0.472 and the relative viability (NCI-H2085; first compound 20 µM) was 0.166. The relative viability (NCI-H2342; first compound 0.2 µM) was 0.602, the relative viability (NCI-H2342; first compound 0.6325 µM) was 0.452 and the relative viability (NCI-H2342; first compound 6.325 µM) was 0.535. For the same molecule, the relative viability (NCI-H2342; first compound 20 µM) was 0.463, the relative viability (NCI-H2170; first compound 0.2 µM) was 0.422 and the relative viability (NCI-H2170; first compound 0.6325 µM) was 0.36. It also gave a relative viability (NCI-H2170; first compound 2 µM) of 0.391, a relative viability (NCI-H2170; first compound 6.325 µM) of 0.449 and a relative viability (NCI-H2170; first compound 20 µM) of 0.379. It also gave a relative viability (LCLC-97TM1; first compound 0.2 µM) of 0.215, a relative viability (LCLC-97TM1; first compound 0.6325 µM) of 0.192 and a relative viability (LCLC-97TM1; first compound 2 µM) of 0.193. The relative viability (LCLC-97TM1; first compound 6.325 µM) was 0.264, the relative viability (LCLC-97TM1; first compound 20 µM) was 0.206 and the relative viability (SK-MES-1; first compound 0.2 µM) was 0.323. The relative viability (SK-MES-1; first compound 0.6325 µM) was 0.371, the relative viability (SK-MES-1; first compound 2 µM) was 0.326 and the relative viability (SK-MES-1; first compound 6.325 µM) was 0.291. It also gave a relative viability (SK-MES-1; first compound 20 µM) of 0.295, a relative viability (201T; first compound 0.2 µM) of 0.386 and a relative viability (201T; first compound 0.6325 µM) of 0.356. It also gave a relative viability (201T; first compound 2 µM) of 0.331, a relative viability (201T; first compound 6.325 µM) of 0.352 and a relative viability (201T; first compound 20 µM) of 0.331. For the same molecule, the relative viability (ChaGo-K-1; first compound 0.2 µM) was 0.989, the relative viability (ChaGo-K-1; first compound 0.6325 µM) was 0.897 and the relative viability (ChaGo-K-1; first compound 2 µM) was 0.917. It also gave a relative viability (ChaGo-K-1; first compound 6.325 µM) of 0.906, a relative viability (ChaGo-K-1; first compound 20 µM) of 0.836 and a relative viability (NCI-H2405; first compound 0.2 µM) of 0.487. The relative viability (NCI-H2405; first compound 0.6325 µM) was 0.539, the relative viability (NCI-H2405; first compound 6.325 µM) was 0.518 and the relative viability (NCI-H2405; first compound 20 µM) was 0.24.
